Consider 2 compounds from ChEMBL document CHEMBL4130583, “Artocarmins G-M, Prenylated 4-Chromenones from the Stems of Artocarpus rigida and Their Tyrosinase Inhibitory Activities” (J Nat Prod, 2017).

Assay [1] addresses T1, Tyrosinase (Homo sapiens, UniProt P14679).
T1 sequence (P14679 whole entry): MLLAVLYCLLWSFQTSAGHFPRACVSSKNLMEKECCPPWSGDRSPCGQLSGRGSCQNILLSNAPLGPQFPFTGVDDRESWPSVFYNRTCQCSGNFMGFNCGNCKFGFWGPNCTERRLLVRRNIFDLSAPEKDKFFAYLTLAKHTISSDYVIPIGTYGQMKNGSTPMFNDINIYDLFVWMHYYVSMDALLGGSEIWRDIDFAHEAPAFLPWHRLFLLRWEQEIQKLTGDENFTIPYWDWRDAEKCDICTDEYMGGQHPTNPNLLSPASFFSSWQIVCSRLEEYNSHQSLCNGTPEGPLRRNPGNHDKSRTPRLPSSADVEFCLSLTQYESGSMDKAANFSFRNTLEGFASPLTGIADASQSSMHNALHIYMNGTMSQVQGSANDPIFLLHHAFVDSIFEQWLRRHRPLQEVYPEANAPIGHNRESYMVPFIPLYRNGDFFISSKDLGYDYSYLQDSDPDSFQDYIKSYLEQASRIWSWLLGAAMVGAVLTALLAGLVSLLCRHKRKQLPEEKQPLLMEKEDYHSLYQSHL
The assay can be described thus: Inhibition of tyrosinase (unknown origin) using L-dihydroxyphenylalanine as substrate preincubated for 30 mins followed by substrate addition measured for 7 mins by spectrophotometric analysis.

Assay [2] concerns the target T2, Tyrosinase (Homo sapiens) (UniProt P14679).
T2 sequence (whole entry): T1 sequence (P14679 whole entry)
The assay can be described thus: Potency index, ratio of kojic acid IC50 to compound IC50 for tyrosinase (unknown origin).

Regarding `COc1c(-c2oc3cc(O)cc(O)c3c(=O)c2CC=C(C)C)cc(O)c(O)c1CC=C(C)C`, in assay [1], inhibition was half-maximal at 45.3 µM (IC50).
Consider `O=c1cc(-c2ccc(O)cc2O)oc2cc(O)cc(O)c12` [NORARTOCARPETIN], for which it took 0.023 µM to reach half-maximal inhibition in assay [1] (IC50). Also, the Ratio IC50 in assay [2] was 1900.
